Measurements as given in patent US20050203011A1, “Mitigating symptoms and behaviors of substance abuse by modulating GDNF or BDNF pathway activity” (The Regents of the University of California, priority 2003, published 2005).

Columns and labels:
rats = experiment: Ethanol reinstatement after extinction, systemic ibogaine; format: in vivo, rat; conditions: 40 mg/kg i.p., 3 hours before test
Description: The eight rats used in the operant self-administration study were also used to study ethanolseeking after a period of extinction. Following a period of stable responding for ethanol, rats underwent extinction in which no ethanol was delivered following active lever responses.

DBA mice = experiment: Conditioned place preference test (CPP); format: in vivo, mouse; conditions: ibogaine 40 mg/kg i.p. during CPP acquisition, before expression, or both
Protocol: The CPP apparatus (Med Associates) consisted of two visually distinctive conditioning compartments connected by a smaller center compartment. The CPP procedure consisted of three phases: preconditioning (Day 1), conditioning (Days 2-9), and post-conditioning (Day 10). On Day 1, mice were placed into the center compartment and allowed free access to both conditioning compartments for 30 minutes. […] Mice were given access to one conditioning chamber for 5 minutes immediately after injection or 3 h after injection. […] Control subjects received saline in both conditioning chambers. […] Ethanol treatment was followed by placement within one conditioning chamber, alternated with saline treatment and placement into the other conditioning chamber, as described above. On Day 10, animals were tested for CPP by allowing free access to both conditioning compartments for 30 minutes. Photocell counts provided a measure of locomotor activity as well as time spent in each compartment

GDNF [1] = experiment: GDNF expression in the midbrain after i.p. ibogaine (RT-PCR), mice; format: in vivo, mouse; conditions: 40 mg/kg i.p., 1, 6 or 12 h post injection
Protocol: Total RNA was isolated using Trizol reagent and reverse transcribed using Reverse Transcription System kit with the oligo (dT)15 primer at 42ûC for 30 minutes. GDNF, Actin or GPDH expressions were analyzed by RT-PCR. The GDNF primers were based on the coding frame of the human GDNF gene: upstream, 5′-TGCCAGAGGATTATCCTGATCAGTTCG ATG3′ (SEQ ID NO: 1); and downstream, 5′-TTGTCGTACGTTGTCTCAGCTGCATCGCAA-3′ (SEQ ID NO:2). The Actin primers were based on the human Actin gene: upstream, 5′-TCATGAAGTGTGACGTTGACATC-3′ (SEQ ID NO:3); and downstream, 5′-AGAAGCATTTGCGGTGGACGATG-3′ (SEQ ID NO:4). The GPDH primers were based on the rat GPDH gene: upstream, 5′-TGAAGGTCGGTGTCAACGGATTTGGC-3′ (SEQ ID NO:5); and downstream, 5′-CATGTAGGCCATGAGGTCCACCAC-3′ (SEQ ID NO:6). PCR conditions were optimized to specifically ensure that the amplification reactions are within the linear range by testing a range of 25-40 PCR cycles. The optimal numbers of cycles used were: 30 cycles for controls GPDH and actin and 35 cycles for GDNF.
Male C57B16 mice or Long Evans rats were habituated with 3 saline injections over 3 days followed by i.p. administration of 40 mg/kg ibogaine-HCl. The animals were sacrificed 1, 6 or 12 hours post injection, and brain regions were excised and stored at −80° C. until use for analysis of GDNF expression by RT-PCR.

GDNF [2] = experiment: GDNF secretion into medium of SHSY5Y cells (ELISA); format: cell-based, human; conditions: 10 μM
Description: GDNF secretion in the medium was detected using GDNF Emax Immunoassay System according to (Balkowiec and Katz, 2000). GDNF concentration was interpolated from the standard curves (linear range of 15.6-1000 pg/ml).

Ret = Ret phosphorylation in SHSY5Y cells; format: cell-based, human; conditions: dose- and time-dependent
Protocol: Expression of GDNF and control Actin were analyzed by RT-PCR (n=4). […] GDNF in the media was detected by an ELISA assay. Histogram depicts the mean±SD of GDNF secretion in 3 experiments. […] Ret was immunoprecipitated with anti-Ret antibodies followed by Western blot analysis with anti GFRα1 antibodies. The levels of GFRα1 in the homogenates were determined by Western blot analysis (n=3). […] Ret was immunoprecipitated followed by Western blot analysis with anti-phospho tyrosine or anti-Ret antibodies (n=3). […] Trk phosphorylation was analyzed by Western blot analysis with anti-phospho-Trk antibodies. The levels of TrkB were also determined by Western blot analysis (n=3). Panel F: Cells were pre-incubated with 0.3 unit/ml PI-PLC for 1 h (lanes 3 and 4). […] Ret phosphorylation was determined as described above (n=4). […] Treatment with 50 ng/ml GDNF was used as a positive control (lane 5). The cells were lysed and Ret phosphorylation was analyzed as described above (n=3).
Cells were collected and lysed in RIPA buffer (50 mM Tris-Cl, pH 7.6, 150 mM NaCl, 1 % NP40, 0.1% SDS, 0.5% sodium deoxycholate, 2 mM EDTA, protease inhibitor cocktail and 10 mM sodium orthovanadate). Homogenates were incubated with 5 N^og anti-Ret antibody in TBS-T buffer (20 mM Tris-Cl, pH7.6, 137 mM NaCl and 1% NP-40) overnight at 4° C., followed by 2 hours incubation with Protein G agarose. […]

[3] = test system: tyrosine hydroxylase (TH); experiment: Tyrosine hydroxylase (TH) protein levels in SHSY5Y cells; format: cell-based, human; conditions: 100 mM ethanol 24 hours, GDNF 100 ng/ml or ibogaine 10 μM added for last 12 hours
Protocol: Panel A: SHSY5Y cells were treated with different concentrations (0, 10, 25, and 100 mM) of ethanol for 24 hours. TH protein levels and control Actin levels were determined by Western blot analysis. Histogram depicts the mean ratio (TI/actin)±SD of 3 experiments. Panel B: Cells were treated with media (control), 100 ng/ml of GDNF for 12 h (lane 1), 100 mM ethanol for 24 hours (lane 2), or 100 mM ethanol for 24 hours to which 100 ng/ml GDNF was added for the last 12 hours (lane 3). The cells were lysed for Western blot analysis. Histogram depicts the mean ratio (TH/actin)±SD of 3 experiments. […] Histogram depicts the mean ratio (TH/actin)±SD of 3 experiments.

12-methoxyibogamine [ibogaine]
reinstatement of lever pressing for ethanol (rats): reduced
rewarding properties of ethanol (ethanol-induced CPP) (DBA mice): not altered
expression of GDNF in the midbrain (GDNF [1]): increase
GDNF levels in the media (secretion) (GDNF [2]): accumulated in the media in a time-dependent manner
Ret phosphorylation (Ret): induced
ethanol-induced increase in TH immunoreactivity [3]: inhibited
